The source of these data is patent US20170342025A1, “ANTIMICROBIAL COMPOUNDS, COMPOSITIONS AND METHODS” (Swansea University, priority 2014, published 2017).

Structures are written as SMILES. Like-named read-outs stand apart in the source and are kept apart here.

Data set [1] deals with methicillin-resistant staphylococcus aureus (MRSA) strain MRSA-III (ST239). The data set is described as follows: MIC against MRSA strain MRSA-III (ST239). Particulars: read-out: MIC against MRSA-III. The format is cell-based. As to the method: (§1) Minimum Inhibitory Concentrations (MICs) for the compounds prepared were determined against Escherichia coli (strain JM109) and Staphylococcus aureus (strain 9518) using the protocols described by Andrews (J. Antimicrob. Chemother., 2001, 48, Suppl. S1, 5-16).
(§2) In addition, three compounds were tested against methicillin-resistant staphylococcus aureus (MRSA) strains MRSA-III (ST239) and EMRSA-15.

The subject of data set [2] is methicillin-resistant staphylococcus aureus (MRSA) strain EMRSA-15. The data set is described as follows: MIC against MRSA strain EMRSA-15. The format is cell-based. Here is the method:
as §1, §2

Data set [3] has as its system Staphylococcus aureus (strain 9518). The data set can be described thus: MIC determination against Staphylococcus aureus (Andrews protocol). The data set is classed as cell-based. To be noted: Staphylococcus aureus, read-out: MIC S. aureus. As to the method: as §1
The test system of data set [4] is Escherichia coli (strain JM109). The data set is described as follows: MIC determination against Escherichia coli (Andrews protocol). The format is cell-based. Particulars: Escherichia coli, read-out: MIC E. coli. As to the method: as §1
The mark [5] stands for this setting: second MRSA strain, text names EMRSA-15, read-out: MIC against MRSA-1.
[6] abbreviates: Staphylococcus aureus strain 9518.

For orientation: MIC means the least concentration at which growth counts as inhibited. Take `N=C(N)NCc1cccc(OCc2cccc(C(F)(F)F)c2Cl)c1.O=C(O)C(F)(F)F` [Compound 4L, 1-[(3-{[2-chloro-3-(trifluoromethyl)phenyl]methoxy}phenyl)methyl]guanidine 2,2,2-trifluoroacetate]: the minimum inhibitory concentration (MIC) in data set [1] (MRSA) was in the range of 1 to 10 µg/mL; in data set [2] (MRSA, read-out: MIC against MRSA-1) it was 1 to 10 µg/mL; in data set [3], 10 to 32 µg/mL; in data set [4], 1 to 10 µg/mL.

As to `N=C(N)NCc1ccc(OCc2cccc(Cl)c2Cl)cc1.O=C(O)C(F)(F)F` [Compound 19e, 1-(4-((2,3-dichlorobenzyl)oxy)benzyl)guanidine 2,2,2-trifluoroacetate], the MIC in data set [1] (MRSA-III (ST239)) was 1 to 10 µg/mL; in data set [2] (setting [5]), 1 to 10 µg/mL; in data set [3] (setting [6]), 10 to 32 µg/mL; in data set [4] (Escherichia coli strain JM109), 1 to 10 µg/mL.

As usually defined, the melting point is the temperature, or range, at which the solid turns liquid. For the compound `CC(=O)O.N=C(N)NN=Cc1cccc(OCc2cccc(Cl)c2Cl)c1` [Compound 49a, 1-[({3-[(2,3-dichlorophenyl)methoxy]phenyl}methylidene)amino]guanidine acetate], the melting point was in the range of 159 to 160 °C. Also, the MIC in data set [1] (MRSA-III (ST239)) was 1 to 10 µg/mL. Also, the MIC in data set [2] (setting [5]) was 1 to 10 µg/mL. Also, the minimal inhibitory concentration (MIC) in data set [3] (setting [6]) lay within 1 to 10 µg/mL. The minimal inhibitory concentration (MIC) in data set [4] (Escherichia coli strain JM109) lay within 1 to 10 µg/mL.

With `Cl.N=C(N)N/N=C/c1cccc(OCc2ccc(Cl)cc2)c1Cl` [Compound 51c, (E)-Amino(2-(2-chloro-3-((4-chlorobenzyl)oxy)benzylidene)hydrazinyl) methaniminium chloride], the melting point is 237 to 239 °C. In addition, the minimal inhibitory concentration (MIC) in data set [3] (setting [6]) fell in the range of 1 to 10 µg/mL. Besides, the minimal inhibitory concentration (MIC) in data set [4] (Escherichia coli strain JM109) is 1 to 10 µg/mL.

As for `Cl.N=C(N)N/N=C/c1cccc(OCc2cccc(Cl)c2Cl)c1Cl` [Compound 51d, (E)-Amino(2-(2-chloro-3-((2,3-dichlorobenzyl)oxy)benzylidene)hydrazinyl) methaniminium chloride], the melting point fell in the range of 250 to 253 °C. Moreover, the minimal inhibitory concentration (MIC) in data set [3] (setting [6]) was 32 to 100 µg/mL. Besides, the minimal inhibitory concentration (MIC) in data set [4] (Escherichia coli strain JM109) was 1 to 10 µg/mL.

On to `Cl.N=C(N)N/N=C/c1cccc(OCc2cccc(C(F)(F)F)c2Cl)c1Cl` [Compound 51e, (E)-Amino(2-(2-chloro-3-((2-chloro-3-(trifluoromethyl)benzyl)oxy)benzylidene) hydrazinyl)methaniminium chloride], for which the melting point is 274 to 277 °C. In addition, the MIC in data set [3] (setting [6]) is 32 to 100 µg/mL. In addition, the minimum inhibitory concentration (MIC) in data set [4] (Escherichia coli strain JM109) was in the range of 1 to 10 µg/mL.

In the case of `Cl.N=C(N)N/N=C/c1cccc(OCc2ccc(Cl)cc2Cl)c1Cl` [Compound 51f, (E)-Amino(2-(2-chloro-3-((2,4-dichlorobenzyl)oxy)benzylidene)hydrazinyl) methaniminium chloride], the melting point fell in the range of 268 to 270 °C. The MIC in data set [3] (setting [6]) was 32 to 100 µg/mL. The minimal inhibitory concentration (MIC) in data set [4] (Escherichia coli strain JM109) fell in the range of 1 to 10 µg/mL.

The compound `Cl.N=C(N)N/N=C/c1cccc(OCc2cc(Cl)ccc2Cl)c1Cl` [Compound 51g, (E)-Amino(2-(2-chloro-3-((2,5-dichlorobenzyl)oxy)benzylidene)hydrazinyl) methaniminium chloride] yielded a melting point of 242 to 244 °C. The MIC in data set [3] (setting [6]) was in the range of 32 to 100 µg/mL. In addition, the MIC in data set [4] (Escherichia coli strain JM109) is 10 to 32 µg/mL.

As to `Cl.N=C(N)N/N=C/c1cccc(OCc2ccc(Cl)c(Cl)c2)c1Cl` [Compound 51h, (E)-Amino(2-(2-chloro-3-((3,4-dichlorobenzyl)oxy)benzylidene)hydrazinyl) methaniminium chloride], the melting point was in the range of 230 to 233 °C. Besides, in data set [3] (setting [6]), the MIC was 1 to 10 µg/mL. For the same compound, in data set [4] (Escherichia coli strain JM109), the MIC was in the range of 1 to 10 µg/mL.

For `Cl.N=C(N)N/N=C/c1cccc(OCc2cc(Cl)cc(Cl)c2Cl)c1Cl` [Compound 51i, (E)-Amino(2-(2-chloro-3-((2,3,5-trichlorobenzyl)oxy)benzylidene)hydrazinyl) methaniminium chloride], the melting point lay in the range of 273 to 276 °C. Besides, in data set [3] (setting [6]), the minimal inhibitory concentration (MIC) lay in the range of 32 to 100 µg/mL. Besides, in data set [4] (Escherichia coli strain JM109), the minimal inhibitory concentration (MIC) is 32 to 100 µg/mL.

`CC(=O)O.N=C(N)N/N=C/c1cccc(OCc2cccc(C(F)(F)F)c2)c1Cl` [Compound 51j, (E)-Amino(2-(2-chloro-3-((3-(trifluoromethyl)benzyl)oxy)benzylidene)hydrazinyl) methaniminium acetate] registered a melting point of 183 to 187 °C. Further, in data set [3] (setting [6]), the MIC was in the range of 1 to 10 µg/mL. In addition, in data set [4] (Escherichia coli strain JM109), the minimal inhibitory concentration (MIC) is 1 to 10 µg/mL.

Compound `Cl.N=C(N)N/N=C/c1cccc(OCc2ccc(C(F)(F)F)cc2)c1Cl` [Compound 51k, (E)-Amino(2-(2-chloro-3-((4-(trifluoromethyl)benzyl)oxy)benzylidene)hydrazinyl) methaniminium chloride] gave a melting point of 245 to 247 °C. Further, the minimum inhibitory concentration (MIC) in data set [3] (setting [6]) is 10 to 32 µg/mL. For the same compound, the MIC in data set [4] (Escherichia coli strain JM109) fell in the range of 10 to 32 µg/mL.
